In PMC12757481, “The dihydropyridine LA1011 modulates multiple Hsp90—co-chaperone interactions relevant to Alzheimer’s disease” (Cell Stress & Chaperones, 2025):
Read-outs that look alike come from different tables or passages of the source.

Columns and labels:
Hsp90 [1] = target: Hsp90; set-up: method as in PMID 29930942; conditions: previously measured; cited from earlier work
Hsp90-HOP = Hsp90-HOP (Saccharomyces cerevisiae, UniProt P02829); conditions: ITC, 20 μM Hsp90, 40 μM HOP
Protocol: (§1) The heat of interaction was measured on an ITC200 microcalorimeter (Microcal) under the same buffer conditions (20 mM Tris, pH 7.5, containing 5 mM NaCl), except for experiments using PP5, where we omitted EDTA and used 1 μM MnCl2. In experiments using nucleotide, we used 5 mM AMPPNP and 6 mM MgCl2. For experiments using Aha1 with AMPPNP the buffer contained 100 mM NaCl. Similarly, Sgt1 experiments also included 100 mM NaCl in the buffer. […] Heats of dilution were determined by diluting the injectant into the buffer. Data were fitted using a curve-fitting algorithm (Microcal Origin) either as a one-site binding event or as two independent binding sites as required.
(§2) Thus, our overall approach is to use a stoichiometry of 1:1 that represents the binding of two LA1011 molecules (because there are two binding sites) per Hsp90 dimer, except where we are confident that the stoichiometry is 2:1 (Hsp90 dimer and one LA1011 molecule).

Hsp90-p23-PNP = target: T1, Hsp90-p23-PNP (Saccharomyces cerevisiae, UniProt P02829); assay: ITC, LA1011 binding to AMPPNP-Hsp90-p23 complex; set-up: species or system yeast; conditions: 30 μM Hsp90, 200 μM p23, 5 mM Mg-PNP
T1 construct: made in house
Protocol: as §1
(§3) To circumvent this limitation, we can alternatively fit the two sites as equal thermodynamic events, and the Kd value or values(s) returned then act as an indicator for changes in the overall affinity for LA1011 binding. […] Thus, our overall approach is to use a stoichiometry of 1:1 that represents the binding of two LA1011 molecules (because there are two binding sites) per Hsp90 dimer, except where we are confident that the stoichiometry is 2:1 (Hsp90 dimer and one LA1011 molecule). […] Thus, prior to choosing the ITC fitting parameters, we first consider the availability of both LA1011 binding sites for complexes of Hsp90 with its co-chaperone partner. […]

Hsp90-Sgt1 = target: T2, Hsp90-Sgt1 (Saccharomyces cerevisiae, UniProt P02829); assay: ITC, LA1011 binding to Hsp90-Sgt1 complex; set-up: species or system yeast; conditions: 30 μM Hsp90, 60 μM Sgt1, 100 mM NaCl, 2:1 fit
T2 construct: made in house
Protocol: as §1, §2

Hsp90 [2] = target: T3, Hsp90 (Saccharomyces cerevisiae, UniProt P02829); assay: Lactate-dehydrogenase and pyruvate-kinase-linked Hsp90 ATPase assay; format: biochemical, yeast; conditions: for effect on Hsp90 ATPase activity: 2 μM Hsp90; for effect of LA1011 on the co-chaperone directed regulation of Hsp90 ATPase activity: 2 μM Hsp90, 240 μM LA1011, co-chaperone 0.25 to 30 μM, normalized data compared with control lacking LA1011
T3 construct: made in house
Protocol: ATPase assays using 2 μM Hsp90 were conducted as previously described using the lactate-dehydrogenase and pyruvate-kinase-linked assay.[12] Briefly, 240 μM of LA1011 was used in assays as required. Co-chaperones were added to Hsp90 and Hsp90-LA1011 complex at a variety of concentrations ranging from 0.25 to 30 μM. Assays utilizing LA1011 were normalized by recalculating the activity for all data points so that the data points were converted to a percentage of the activity relative to the first data point, which lacked any addition of co-chaperone. The first data point was therefore 100% max Hsp90 activity. All assays were conducted at least in triplicate.
To assess the effect of LA1011 on the mechanistic action of co-chaperones, we used the lactate-dehydrogenase and pyruvate-kinase-linked Hsp90 ATPase assay. We first assessed the effect of each co-chaperone on Hsp90 ATPase activity and then compared its effect on a Hsp90-LA1011 complex.

Hsp90-FKBP52 = target: T4, Hsp90-FKBP52 (Saccharomyces cerevisiae, UniProt P02829); assay: ITC, LA1011 binding to Hsp90-FKBP52 complex; set-up: species or system yeast; conditions: 30 μM Hsp90, 60 μM FKBP52, 2:1 fit
T4 construct: made in house
Protocol: as §1, §2

Hsp90-CDC37 = target: T5, Hsp90-CDC37 (Saccharomyces cerevisiae, UniProt P02829); assay: ITC, LA1011 binding to Hsp90-CDC37 complex; set-up: species or system yeast
T5 construct: made in house
Protocol: as §1, §2

Hsp90-AMPPNP = target: T6, Hsp90-AMPPNP (Saccharomyces cerevisiae, UniProt P02829); assay: ITC, LA1011 binding to Hsp90-AMPPNP; set-up: species or system yeast; conditions: 30 μM Hsp90, 5 mM AMPPNP
T6 construct: made in house
Protocol: as §1, §3

Hsp90-Aha1 = target: T7, Hsp90-Aha1 (Saccharomyces cerevisiae, UniProt P02829); assay: ITC, LA1011 binding to nucleotide-free Hsp90-yeast Aha1 complex; conditions: 20 μM Hsp90, 40 μM yAha1, nucleotide-free
T7 construct: made in house
Protocol: as §1, §3

Hsp90-FKBP51 = target: T8, Hsp90-FKBP51 (Saccharomyces cerevisiae, UniProt P02829); assay: ITC, LA1011 binding to Hsp90-FKBP51 complex; set-up: species or system yeast; conditions: 30 μM Hsp90, 60 μM FKBP51, 2:1 fit
T8 construct: made in house
Protocol: as §1, §2

Hsp90-CHIP = target: T9, Hsp90-CHIP (Saccharomyces cerevisiae, UniProt P02829); assay: ITC, LA1011 binding to Hsp90-mouse CHIP complex; set-up: species or system yeast; conditions: 20 μM Hsp90, 60 μM CHIP
T9 construct: made in house
Protocol: as §1, §3

APPxPS1 AD mouse model = system: APPxPS1 AD mouse model; set-up: method as in PMID 27163800; conditions: APPxPS1 mice, versus untreated mice; cited from earlier work
Hsp90 [3] = target: T3, Hsp90; assay: ITC, LA1011 binding to nucleotide-free Hsp90; set-up: species or system yeast; conditions: ITC 30 °C, 2 mM LA1011 injected into 30 μM Hsp90
Protocol: as §1, §3

Hsp90-PNP = target: T10, Hsp90-PNP (Saccharomyces cerevisiae, UniProt P02829); assay: ITC, co-chaperone binding to Hsp90-AMPPNP; set-up: species or system yeast; conditions: 5 mM AMPPNP, no LA1011, for Aha1 the Hsp90-PNP was the injectant
T10 construct: made in house
Protocol: (§4) The heat of interaction was measured on an ITC200 microcalorimeter (Microcal) under the same buffer conditions (20 mM Tris, pH 7.5, containing 5 mM NaCl), except for experiments using PP5, where we omitted EDTA and used 1 μM MnCl2. In experiments using nucleotide, we used 5 mM AMPPNP and 6 mM MgCl2. For experiments using Aha1 with AMPPNP the buffer contained 100 mM NaCl. Similarly, Sgt1 experiments also included 100 mM NaCl in the buffer. […] To assess co-chaperone binding to Hsp90 and Hsp90-LA1011 complex, we generally injected aliquots of co-chaperone at concentrations ranging from 200 to 400 μM into the microcell containing the Hsp90 or Hsp90-LA1011 complex at concentrations ranging from 20 to 30 μM of Hsp90 or Hsp90 in complex with 2 mM LA1011 at 30 °C. Heats of dilution were determined by diluting the injectant into the buffer. Data were fitted using a curve-fitting algorithm (Microcal Origin) either as a one-site binding event or as two independent binding sites as required.

Hsp90 [4] = target: T3, Hsp90; assay: ITC, co-chaperone binding to Hsp90; set-up: species or system yeast
Protocol: as §4

Hsp90-LA1011 = target: T11, Hsp90-LA1011 (Saccharomyces cerevisiae, UniProt P02829); assay: ITC, co-chaperone binding to Hsp90-LA1011 complex; set-up: species or system yeast
T11 construct: made in house
Protocol: as §4

Hsp90-LA1011-PNP = target: T12, Hsp90-LA1011-PNP (Saccharomyces cerevisiae, UniProt P02829); assay: ITC, co-chaperone binding to Hsp90-AMPPNP-LA1011 complex; set-up: species or system yeast; conditions: 5 mM AMPPNP, 2 mM LA1011, for Aha1 the Hsp90-LA1011-PNP was the injectant
T12 construct: made in house
Protocol: as §4

[5] = ITC 30 °C, co-chaperone and Hsp90 without LA1011, one-site fit, read-out: Kd
[6] = ITC 30 °C, Hsp90 in complex with 2 mM LA1011, one-site fit, read-out: Kd

T11 sequence (P02829 whole entry): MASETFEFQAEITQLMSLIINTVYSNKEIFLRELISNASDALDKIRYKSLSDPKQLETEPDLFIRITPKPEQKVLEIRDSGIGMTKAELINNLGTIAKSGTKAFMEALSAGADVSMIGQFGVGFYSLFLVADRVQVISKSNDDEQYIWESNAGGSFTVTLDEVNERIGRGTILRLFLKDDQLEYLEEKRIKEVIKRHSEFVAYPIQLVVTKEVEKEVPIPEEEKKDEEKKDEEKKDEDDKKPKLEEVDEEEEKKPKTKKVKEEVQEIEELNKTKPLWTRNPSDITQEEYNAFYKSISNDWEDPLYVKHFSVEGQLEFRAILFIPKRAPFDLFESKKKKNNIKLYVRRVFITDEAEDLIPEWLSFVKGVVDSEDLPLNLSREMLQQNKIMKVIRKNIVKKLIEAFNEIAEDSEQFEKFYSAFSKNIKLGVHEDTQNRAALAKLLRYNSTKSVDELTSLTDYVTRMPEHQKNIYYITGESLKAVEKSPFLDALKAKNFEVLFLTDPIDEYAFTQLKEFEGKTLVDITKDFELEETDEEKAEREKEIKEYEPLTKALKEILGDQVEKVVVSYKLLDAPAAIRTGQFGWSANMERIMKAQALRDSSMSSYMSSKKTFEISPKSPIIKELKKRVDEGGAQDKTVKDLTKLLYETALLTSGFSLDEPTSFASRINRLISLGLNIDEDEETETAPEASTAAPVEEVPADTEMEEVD
T3 sequence (P02829 whole entry): as above
T12 sequence (P02829 whole entry): as above
T7 sequence (P02829 whole entry): as above
T7 sequence (Q12449 whole entry partner): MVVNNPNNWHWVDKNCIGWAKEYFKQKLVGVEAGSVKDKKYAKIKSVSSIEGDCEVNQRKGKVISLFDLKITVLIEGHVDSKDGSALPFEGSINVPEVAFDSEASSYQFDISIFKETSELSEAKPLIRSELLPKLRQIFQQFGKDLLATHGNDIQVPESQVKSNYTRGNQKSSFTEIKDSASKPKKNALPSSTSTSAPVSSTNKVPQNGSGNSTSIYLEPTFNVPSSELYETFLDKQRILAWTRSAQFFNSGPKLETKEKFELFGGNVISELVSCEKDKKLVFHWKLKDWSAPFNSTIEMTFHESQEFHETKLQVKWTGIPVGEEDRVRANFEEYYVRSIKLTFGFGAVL
T5 sequence (P02829 whole entry): as the sequence (P02829 whole entry) above
T5 sequence (Q16543 whole entry partner): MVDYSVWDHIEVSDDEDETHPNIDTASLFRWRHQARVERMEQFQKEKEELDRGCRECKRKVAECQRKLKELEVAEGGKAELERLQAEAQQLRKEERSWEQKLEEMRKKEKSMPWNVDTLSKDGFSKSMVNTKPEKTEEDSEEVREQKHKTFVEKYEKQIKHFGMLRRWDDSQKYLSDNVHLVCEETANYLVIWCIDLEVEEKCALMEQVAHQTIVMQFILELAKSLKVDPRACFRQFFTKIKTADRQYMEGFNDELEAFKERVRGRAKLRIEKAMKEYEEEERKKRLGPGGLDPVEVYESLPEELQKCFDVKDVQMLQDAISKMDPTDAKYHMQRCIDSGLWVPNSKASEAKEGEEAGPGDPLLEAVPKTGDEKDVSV
T6 sequence (P02829 whole entry): as the sequence (P02829 whole entry) above

In the case of `COC(=O)C1=C(CCN(C)C)N(C)C(CCN(C)C)=C(C(=O)OC)C1c1ccc(C(F)(F)F)cc1.Cl.Cl` [LA1011, dimethyl 4-(4-Trifluoro-methyl-phenyl)-2,6-bis(2-dimethylamino-ethyl)-1-methyl-1-4 dihydropyridine-3-5-dicarboxylate dihydrochloride], the Kd (Hsp90 [1]) is listed as 13.5 µM, the Kd (Hsp90-HOP; read-out: Kd (1:1), 1:1 fit) is listed as 8.8 ± 1.3 µM and the Kd (Hsp90-HOP; read-out: Kd (2:1), 2:1 fit) is listed as 8.8 ± 1.3 µM. For the same compound, the Kd (Hsp90-p23-PNP; 1:1 fit, read-out: Kd (1:1)) was 58.8 ± 3.5 µM, the Kd (Hsp90-p23-PNP; 2:1 fit, read-out: Kd (2:1)) was 73 ± 4.5 µM and the Kd (Hsp90-Sgt1) was 8.2 ± 1 µM. For the same compound, the “effect on Hsp90 ATPase activity” value (Hsp90 [2]) was “activators of Hsp90 ATPase activity”, the Kd (Hsp90-FKBP52) was 56.2 ± 5.8 µM and the Kd (Hsp90-CDC37; 20 μM Hsp90, 40 μM CDC37, 1:1 fit, read-out: Kd (1:1)) was 4.2 ± 0.8 µM. The Kd (Hsp90-CDC37; 20 μM Hsp90, 40 μM CDC37, 2:1 fit, read-out: Kd (2:1)) was 9.5 ± 2.5 µM, the Kd (Hsp90-AMPPNP; 1:1 fit, read-out: Kd (1:1)) was 58.8 ± 24.2 µM and the Kd (Hsp90-AMPPNP; 2:1 fit, read-out: Kd (2:1)) was 73 ± 3.1 µM. For the same compound, the Kd (Hsp90-Aha1; 1:1 fit, read-out: Kd (1:1)) was 118 ± 8 µM, the Kd (Hsp90-Aha1; 2:1 fit, read-out: Kd (2:1)) was 53.2 ± 5.5 µM and the Kd (Hsp90-FKBP51) was 79.4 ± 33.5 µM. The Kd (Hsp90-CHIP; 1:1 fit, read-out: Kd (1:1)) was 56.2 ± 26.2 µM, the Kd (Hsp90-CHIP; 2:1 fit, read-out: Kd (2:1)) was 69 ± 2 µM and the “amyloid-beta (Aβ) plaques” value (APPxPS1 AD mouse model) was “decreases”. The dendritic spine density (APPxPS1 AD mouse model) was “increase in the dendritic spine density”, the heat-shock-response (APPxPS1 AD mouse model) was “co-induction of the heat-shock-response” and the neurofibrillary tangles (APPxPS1 AD mouse model) was “decreases in neurofibrillary tangles”. The neuron number (APPxPS1 AD mouse model) was “increase in neuron number”, the Kd (Hsp90 [3]; 1:1 stoichiometric fit, read-out: Kd (1:1)) was 19.8 ± 2.2 µM and the Kd (Hsp90 [3]; 2:1 (Hsp90:LA1011) stoichiometric fit, read-out: Kd (2:1)) was 28.9 ± 1.7 µM.
Compound “Aha1: yeast Aha1, late-cycle Hsp90 co-chaperone and activator of Hsp90 ATPase activity” has a Kd (Hsp90-PNP) of 1.2 µM, a Kd (Hsp90 [4]; [5]) of 2.4 ± 0.2 µM and a Kd (Hsp90-LA1011; [6]) of 3.3 ± 0.4 µM. For the same compound, the “effect on Hsp90 ATPase activity” value (Hsp90 [2]) was “activators of Hsp90 ATPase activity”, the “effect of LA1011 on the co-chaperone directed regulation of Hsp90 ATPase activity” value (shortened to “effect of LA1011”) (Hsp90 [2]) was “significantly less Aha1 is required to fully activate Hsp90” and the Kd (Hsp90-LA1011-PNP) was 1.8 µM.
With “CDC37: Hsp90 co-chaperone of early complex assembly” the Kd (Hsp90 [4]; [5]) was 1.59 µM, the Kd (Hsp90-LA1011; [6]) was 1.3 µM and the “effect of LA1011” value (Hsp90 [2]) was “unaffected by the presence of LA1011”.
“HOP: Hsp90 co-chaperone found in early complexes of the chaperone cycle” showed a Kd (Hsp90 [4]; [5]) of 0.43 µM and a Kd (Hsp90-LA1011; [6]) of 0.3 µM.
Work on “Hch1: Hsp90 co-chaperone homologous to the N-terminal domain of Aha1” yielded a Kd (Hsp90 [4]; [5]) of 6.9 µM and a Kd (Hsp90-LA1011; [6]) of 11.6 µM.
“PP5: full-length PP5, phosphatase co-chaperone of Hsp90” gave a Kd (Hsp90 [4]; ITC, Hsp90 without LA1011, two-site fit, value listed first in Table 2 and figures, read-out: Kd (two-site fit, first value listed)) of 0.64 µM, a Kd (Hsp90 [4]; ITC, Hsp90 without LA1011, two-site fit, value listed second in Table 2 and figures, read-out: Kd (two-site fit, second value listed)) of 0.16 µM and a Kd (Hsp90-LA1011; ITC, Hsp90 with 2 mM LA1011, two-site fit, value listed first in Table 2 and figures, read-out: Kd (two-site fit, first value listed)) of 9.6 µM. The Kd (Hsp90-LA1011; ITC, Hsp90 with 2 mM LA1011, two-site fit, value listed second in Table 2 and figures, read-out: Kd (two-site fit, second value listed)) was 9.2 µM.
With Sti1: the yeast homolog of human HOP the “effect of LA1011” value (Hsp90 [2]) was “unaffected by the presence of LA1011”.
In the case of “p23: Hsp90 co-chaperone that promotes the closed conformation of Hsp90”, the Kd (Hsp90-PNP) is reported as 4.2 µM, the “effect of LA1011” value (Hsp90 [2]) is reported as “unaffected by the presence of LA1011” and the Kd (Hsp90-LA1011-PNP) is reported as 8.9 µM.
